Experimental data as given in paper PMC8047011, “Enantiomers of 2-methylglutamate and 2-methylglutamine selectively impact mouse brain metabolism and behavior” (Scientific Reports, 2021).

How the values were obtained:
[1] = tested on: mouse cerebral synaptosomes; experiment: Synaptosomal neurotransmitter uptake assay; format: cell-based; settings: 10 μM substrate; for Transport into synaptosomes: 37 °C
Method: Mouse cerebral synaptosomes were prepared according to published methods. See Supplementary Methods for details. 500 μL aliquots of the synaptosome suspension were transferred to pre-chilled microcentrifuge tubes for experiments. Centrifugations were at 8000g for 4 min at 4 °C, unless stated otherwise, and all samples were stored at − 80 °C.
To each tube, 5 μL of a test compound solution (final concentration 10 μM) in Buffer KRP or Buffer KRP alone were added. Samples were incubated at 4 °C or 37 °C for 1, 10, or 30 min and then immediately centrifuged and washed twice by resuspension–centrifugation with Buffer S (0.5 mL). Resulting pellets were resuspended in 170 μL of 0.1% aqueous formic acid and mixed with 330 μL of ACN.
Buffer S (4 mL, × 1) and Buffer KRP (2 mL, × 3). The resulting pellet was resuspended in 3 mL of Buffer KRP and filtered on Ultrafree-CL 5 μm PVDF centrifugal device (1,000g for 4 min at 4 °C). The filtrate was diluted to 15 mL with ice cold Buffer KRP and kept on ice. The synaptosome preparation was used immediately in the following experiments.
Synaptosomal neurotransmitter uptake assay
96-well plate experiments: 250 μL aliquots of the synaptosome suspension were transferred to two 0.8-mL 96 well plates, one on ice (0 °C samples only) and one in a thermoblock (37 °C samples only), and equilibrated for 10 min. 5 μL of a test compound (0.5 mM; final concentration: 10 μM) in Buffer KRP or Buffer KRP blank were added 10, 20 or 30 min before the incubation termination. “0 min” samples were prepared by placing the test compound solution in a separate pre-chilled V-shape bottom 2-mL 96 well plate; at the end of incubation 200 μL aliquots of all samples were transferred to the 2-mL 96 well plate and centrifuged (2,500g for 15 min at 4 °C) immediately. The resulting pellets were rinsed with Buffer KRP, followed by centrifugation, twice, then resuspended in 200 μL of 60% ACN containing 2.5 μM Glu-d5 as internal standard and stored at –80 °C until analysis. […]

kainate nonspecific = experiment: Nonspecific kainate binding assay; settings: 100 μM, triplicate; rat
Method: Nonspecific AMPA, kainate and NMDA binding assays were performed by Eurofins Discovery
(Cerep) using rat cerebral cortex membranes and radiolabeled [3H]AMPA, [3H]kainic acid and
[3H]CGP 39653, respectively. […]

GluN2A = target: T1, GluN2A (Homo sapiens, UniProt Q12879); experiment: FLIPR functional receptor assay, GluN2A; format: cell-based
T1 construct: host or cells: HEK 293
T1 sequence (Q12879 23-1464, other chains not shown): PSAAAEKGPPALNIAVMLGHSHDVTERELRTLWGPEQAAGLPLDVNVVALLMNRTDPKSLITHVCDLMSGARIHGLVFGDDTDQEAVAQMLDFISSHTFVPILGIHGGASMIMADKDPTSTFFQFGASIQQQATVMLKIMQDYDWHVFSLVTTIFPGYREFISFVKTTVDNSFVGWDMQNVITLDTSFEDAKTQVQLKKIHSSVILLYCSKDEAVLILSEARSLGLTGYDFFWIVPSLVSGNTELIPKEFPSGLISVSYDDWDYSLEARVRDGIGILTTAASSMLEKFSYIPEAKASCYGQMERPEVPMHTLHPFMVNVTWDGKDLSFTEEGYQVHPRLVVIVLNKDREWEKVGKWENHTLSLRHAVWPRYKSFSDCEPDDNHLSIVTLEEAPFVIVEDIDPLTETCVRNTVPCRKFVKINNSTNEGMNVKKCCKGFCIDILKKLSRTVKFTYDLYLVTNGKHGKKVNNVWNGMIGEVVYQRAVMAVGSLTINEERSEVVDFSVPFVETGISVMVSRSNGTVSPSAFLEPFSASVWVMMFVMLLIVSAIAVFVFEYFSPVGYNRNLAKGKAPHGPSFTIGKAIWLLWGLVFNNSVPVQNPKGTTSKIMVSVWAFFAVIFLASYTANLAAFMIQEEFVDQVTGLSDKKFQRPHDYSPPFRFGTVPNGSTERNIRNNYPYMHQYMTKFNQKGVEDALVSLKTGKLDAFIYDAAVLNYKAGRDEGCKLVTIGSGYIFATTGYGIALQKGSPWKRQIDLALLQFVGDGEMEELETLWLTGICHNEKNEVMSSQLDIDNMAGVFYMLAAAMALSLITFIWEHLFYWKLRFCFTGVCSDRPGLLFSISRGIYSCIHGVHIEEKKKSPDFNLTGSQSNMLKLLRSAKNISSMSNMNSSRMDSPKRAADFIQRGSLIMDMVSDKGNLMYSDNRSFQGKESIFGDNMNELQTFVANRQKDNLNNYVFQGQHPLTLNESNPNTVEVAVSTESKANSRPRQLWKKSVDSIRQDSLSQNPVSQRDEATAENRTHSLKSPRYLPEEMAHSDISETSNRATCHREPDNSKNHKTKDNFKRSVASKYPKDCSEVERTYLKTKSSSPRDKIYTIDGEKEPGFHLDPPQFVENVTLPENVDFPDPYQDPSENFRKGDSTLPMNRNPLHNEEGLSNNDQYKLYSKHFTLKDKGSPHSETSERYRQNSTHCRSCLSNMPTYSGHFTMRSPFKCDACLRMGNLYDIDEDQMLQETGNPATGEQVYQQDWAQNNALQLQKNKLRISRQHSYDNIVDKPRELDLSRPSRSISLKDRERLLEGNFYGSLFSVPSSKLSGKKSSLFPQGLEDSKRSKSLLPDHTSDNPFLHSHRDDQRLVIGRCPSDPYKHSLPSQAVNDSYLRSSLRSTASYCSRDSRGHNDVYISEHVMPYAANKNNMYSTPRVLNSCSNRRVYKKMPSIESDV
Method: (§1) Receptor functional & binding assays
(§2) Functional assays of all GABAA, NMDA (GluN2A–GluN2D) and AMPA (GluA2) receptor subunits were performed by SB Drug Discovery as a part of their CNS discovery panel using FLIPR technology. Briefly, receptor-expressing HEK 293 cell lines were incubated in a red membrane potential dye in HEPES:HBSS pH 7.4 buffer and the fluorescence (λex: 488, λex: 510–570) was monitored over time as the test compounds and/or reference compounds were added to the solution. In agonist assay, only test compounds were added. In positive allosteric modulator assay, cells were preincubated with test compounds and then low concentration (approximately EC20) of an appropriate agonist was added. In antagonist assay, cells were preincubated with test compounds and then high concentration (approximately EC80) of an appropriate agonist was added. For GABAA assays, GABA was used as the agonist, picrotoxin was used as the reference antagonist and allopregnanolone was used as the reference positive allosteric modulator (PAM). For NMDA assays, a mixture of glutamate, glycine and CaCl2 was used as the agonist, MK801 was the reference antagonist and pregnenolone sulfate or GNE 9278 were used as reference PAMs. […] All compounds were tested at 7 concentration points in triplicate and EC50/IC50 was determined where applicable. […]

GABAB (B1/B2) = target: T2, GABAB (B1/B2) (Homo sapiens, UniProt Q9UBS5); experiment: Functional GABAB assay, Ca2+-dependent fluorimetry in RBL cells; format: cell-based; settings: 100 μM, triplicate
T2 construct: purchased SB Drug Discovery (CNS discovery panel, FLIPR); Eurofins Discovery (Cerep)
T2 sequence (Q9UBS5 20-961): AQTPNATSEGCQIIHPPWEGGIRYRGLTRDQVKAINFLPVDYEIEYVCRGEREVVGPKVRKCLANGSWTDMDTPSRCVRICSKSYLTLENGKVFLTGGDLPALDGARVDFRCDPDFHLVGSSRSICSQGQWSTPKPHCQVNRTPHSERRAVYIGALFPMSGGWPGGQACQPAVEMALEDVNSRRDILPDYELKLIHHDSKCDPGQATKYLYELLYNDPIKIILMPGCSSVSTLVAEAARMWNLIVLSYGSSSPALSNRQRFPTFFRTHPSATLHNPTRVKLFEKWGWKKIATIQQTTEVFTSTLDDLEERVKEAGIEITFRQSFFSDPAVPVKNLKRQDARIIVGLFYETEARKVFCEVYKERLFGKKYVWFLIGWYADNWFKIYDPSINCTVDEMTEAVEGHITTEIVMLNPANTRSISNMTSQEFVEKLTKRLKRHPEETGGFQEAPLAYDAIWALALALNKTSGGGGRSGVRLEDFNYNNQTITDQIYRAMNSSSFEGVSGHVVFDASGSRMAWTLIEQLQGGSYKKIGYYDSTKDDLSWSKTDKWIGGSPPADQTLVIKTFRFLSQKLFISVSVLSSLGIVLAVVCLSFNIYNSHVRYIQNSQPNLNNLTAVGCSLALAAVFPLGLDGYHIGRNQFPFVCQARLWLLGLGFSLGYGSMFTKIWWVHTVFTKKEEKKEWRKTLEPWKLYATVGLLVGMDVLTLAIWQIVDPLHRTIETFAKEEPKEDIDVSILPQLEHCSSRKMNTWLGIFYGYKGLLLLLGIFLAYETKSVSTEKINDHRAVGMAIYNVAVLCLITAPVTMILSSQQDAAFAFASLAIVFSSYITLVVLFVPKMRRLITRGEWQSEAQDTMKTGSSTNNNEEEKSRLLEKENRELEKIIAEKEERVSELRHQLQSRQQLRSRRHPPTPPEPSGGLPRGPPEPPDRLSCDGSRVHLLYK
T2 sequence (O75899 42-941 partner): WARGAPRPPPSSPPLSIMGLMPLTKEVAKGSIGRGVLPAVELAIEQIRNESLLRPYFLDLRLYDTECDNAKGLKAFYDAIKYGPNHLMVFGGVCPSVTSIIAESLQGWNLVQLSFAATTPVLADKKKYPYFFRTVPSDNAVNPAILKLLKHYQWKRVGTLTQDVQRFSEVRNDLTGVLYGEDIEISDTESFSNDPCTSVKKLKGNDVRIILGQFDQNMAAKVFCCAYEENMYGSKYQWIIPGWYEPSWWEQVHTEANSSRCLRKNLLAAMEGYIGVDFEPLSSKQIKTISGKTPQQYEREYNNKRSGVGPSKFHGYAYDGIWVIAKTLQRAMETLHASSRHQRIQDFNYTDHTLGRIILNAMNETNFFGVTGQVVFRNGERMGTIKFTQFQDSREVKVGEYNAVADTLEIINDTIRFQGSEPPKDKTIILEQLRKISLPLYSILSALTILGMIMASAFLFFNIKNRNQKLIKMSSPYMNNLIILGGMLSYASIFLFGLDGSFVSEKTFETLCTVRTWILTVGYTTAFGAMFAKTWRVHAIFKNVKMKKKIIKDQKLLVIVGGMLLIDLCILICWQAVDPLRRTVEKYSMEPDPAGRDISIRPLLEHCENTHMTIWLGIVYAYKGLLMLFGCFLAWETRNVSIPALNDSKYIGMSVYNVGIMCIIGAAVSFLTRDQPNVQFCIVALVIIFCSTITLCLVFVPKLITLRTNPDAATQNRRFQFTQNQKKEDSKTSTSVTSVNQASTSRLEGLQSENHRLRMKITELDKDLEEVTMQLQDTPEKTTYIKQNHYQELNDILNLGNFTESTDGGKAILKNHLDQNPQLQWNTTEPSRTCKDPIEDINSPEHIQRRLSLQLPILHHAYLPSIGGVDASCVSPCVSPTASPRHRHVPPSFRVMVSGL

GABAA α4β1γ2 = target: T3, GABAA α4β1γ2 (Homo sapiens, UniProt P18505+P48169); experiment: FLIPR functional receptor assay, GABAA α4β1γ2; format: cell-based; settings: agonist mode; top test concentration 1 mM
T3 construct: host or cells: HEK 293
T3 sequence (P48169 36-554): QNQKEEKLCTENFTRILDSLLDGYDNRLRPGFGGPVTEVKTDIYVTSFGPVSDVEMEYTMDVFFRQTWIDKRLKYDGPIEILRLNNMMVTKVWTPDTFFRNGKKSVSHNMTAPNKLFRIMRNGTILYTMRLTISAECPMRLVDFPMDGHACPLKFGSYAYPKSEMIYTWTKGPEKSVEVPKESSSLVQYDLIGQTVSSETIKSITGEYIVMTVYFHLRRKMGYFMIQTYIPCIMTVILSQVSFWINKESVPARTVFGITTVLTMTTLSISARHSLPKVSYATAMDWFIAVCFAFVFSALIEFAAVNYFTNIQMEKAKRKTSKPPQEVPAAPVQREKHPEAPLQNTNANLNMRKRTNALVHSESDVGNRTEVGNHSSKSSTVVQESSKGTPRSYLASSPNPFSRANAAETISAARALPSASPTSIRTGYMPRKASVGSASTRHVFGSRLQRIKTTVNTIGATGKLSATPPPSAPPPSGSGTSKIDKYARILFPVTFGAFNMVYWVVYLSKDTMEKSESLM
T3 sequence (P18505 26-474): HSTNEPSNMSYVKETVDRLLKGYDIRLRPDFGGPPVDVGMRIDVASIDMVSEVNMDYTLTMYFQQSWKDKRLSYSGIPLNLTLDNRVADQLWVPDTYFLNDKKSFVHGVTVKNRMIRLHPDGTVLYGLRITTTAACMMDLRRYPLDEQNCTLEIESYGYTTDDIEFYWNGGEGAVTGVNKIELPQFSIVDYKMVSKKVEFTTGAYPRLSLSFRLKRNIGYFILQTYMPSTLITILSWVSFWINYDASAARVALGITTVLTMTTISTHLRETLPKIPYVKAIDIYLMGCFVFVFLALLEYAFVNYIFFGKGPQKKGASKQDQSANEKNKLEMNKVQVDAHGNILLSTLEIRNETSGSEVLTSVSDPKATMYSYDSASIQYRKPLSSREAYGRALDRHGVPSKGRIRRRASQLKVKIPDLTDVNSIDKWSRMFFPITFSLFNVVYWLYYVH
T3 sequence (P18507 40-475 partner): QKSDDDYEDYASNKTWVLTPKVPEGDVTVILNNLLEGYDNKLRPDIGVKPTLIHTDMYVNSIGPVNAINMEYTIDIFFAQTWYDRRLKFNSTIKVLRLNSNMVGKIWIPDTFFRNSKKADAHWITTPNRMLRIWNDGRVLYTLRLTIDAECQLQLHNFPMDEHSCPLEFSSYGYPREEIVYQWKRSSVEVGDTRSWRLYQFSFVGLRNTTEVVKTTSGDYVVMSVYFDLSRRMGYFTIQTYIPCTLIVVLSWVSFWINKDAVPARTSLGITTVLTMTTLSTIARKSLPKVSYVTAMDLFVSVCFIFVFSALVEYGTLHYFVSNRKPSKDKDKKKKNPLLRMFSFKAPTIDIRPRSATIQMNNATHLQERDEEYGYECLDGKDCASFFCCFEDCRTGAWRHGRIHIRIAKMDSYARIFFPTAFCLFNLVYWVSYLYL
Method: as §1, §2

Structure (SMILES)	Transport into synaptosomes [1]	% of radioligand binding inhibition, kainate nonspec (kainate nonspecific) [%]	Activity against GluN2A (in words) (GluN2A)	IC50 (GluN2A; antagonist mode, top test concentration 100 μM) [µM]	% of agonist response, GABAB (B1/B2) (GABAB (B1/B2)) [%]	EC50 (GABAA α4β1γ2) [µM]	Synaptosomal uptake rate relative to the R enantiomer [1]
C[C@@](N)(CCC(=O)O)C(=O)O [(R)-2MeGlu, (R)-2-methylglutamic acid]	transported into synaptosomes	18	weak antagonist behavior	69	0	870	–
C[C@](N)(CCC(=O)O)C(=O)O [(S)-2MeGlu, (S)-2-methylglutamic acid]	transported into synaptosomes	20	–	–	0	704	approximately threefold faster
